Experimental data taken from patent publication US9200017B2, “Multimodal imaging of fibrin” (The General Hospital Corporation, priority 2009, dated 2015).

Target: T1, Thrombus (Rattus norvegicus, UniProt P02680+P06399+P14480)
T1 construct: thrombin cleaves fibrinopeptides on fibrinogen resulting in an end-to-end polymerization to give the polymer fibrin; A day old autologous blood clot was injected into the right internal carotid artery; from tissue; host or cells: autologous blood clot in the right internal carotid artery of Wistar rats
T1 sequence (P06399 37-550 isoform P06399-2 limits assumed): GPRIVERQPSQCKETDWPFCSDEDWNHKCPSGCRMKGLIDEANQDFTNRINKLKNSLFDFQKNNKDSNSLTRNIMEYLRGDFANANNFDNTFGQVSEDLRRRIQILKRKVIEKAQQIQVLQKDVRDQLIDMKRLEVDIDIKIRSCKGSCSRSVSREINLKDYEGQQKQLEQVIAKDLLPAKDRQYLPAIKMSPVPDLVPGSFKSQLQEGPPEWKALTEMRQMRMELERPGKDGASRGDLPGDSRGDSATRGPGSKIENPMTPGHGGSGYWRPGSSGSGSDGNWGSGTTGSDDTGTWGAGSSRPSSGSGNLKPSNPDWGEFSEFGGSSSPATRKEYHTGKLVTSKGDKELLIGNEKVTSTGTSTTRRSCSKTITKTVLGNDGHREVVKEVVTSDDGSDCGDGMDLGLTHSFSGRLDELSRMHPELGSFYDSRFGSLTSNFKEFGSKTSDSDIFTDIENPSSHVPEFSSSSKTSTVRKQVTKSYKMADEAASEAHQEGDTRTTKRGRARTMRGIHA
T1 sequence (P14480 33-479 limits assumed): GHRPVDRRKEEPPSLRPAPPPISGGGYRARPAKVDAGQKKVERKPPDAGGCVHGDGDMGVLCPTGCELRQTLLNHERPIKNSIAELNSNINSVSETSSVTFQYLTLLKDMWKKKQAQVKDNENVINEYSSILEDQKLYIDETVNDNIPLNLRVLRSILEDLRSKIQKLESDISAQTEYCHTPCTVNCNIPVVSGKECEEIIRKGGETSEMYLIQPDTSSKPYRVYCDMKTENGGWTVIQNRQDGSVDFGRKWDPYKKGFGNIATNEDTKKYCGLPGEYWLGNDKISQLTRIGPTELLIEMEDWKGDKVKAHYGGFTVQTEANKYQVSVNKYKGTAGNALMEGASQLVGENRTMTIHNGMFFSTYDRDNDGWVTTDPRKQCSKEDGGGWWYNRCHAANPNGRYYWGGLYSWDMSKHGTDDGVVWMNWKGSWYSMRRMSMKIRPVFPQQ
T1 sequence (P02680 26-437 isoform P02680-2 limits assumed): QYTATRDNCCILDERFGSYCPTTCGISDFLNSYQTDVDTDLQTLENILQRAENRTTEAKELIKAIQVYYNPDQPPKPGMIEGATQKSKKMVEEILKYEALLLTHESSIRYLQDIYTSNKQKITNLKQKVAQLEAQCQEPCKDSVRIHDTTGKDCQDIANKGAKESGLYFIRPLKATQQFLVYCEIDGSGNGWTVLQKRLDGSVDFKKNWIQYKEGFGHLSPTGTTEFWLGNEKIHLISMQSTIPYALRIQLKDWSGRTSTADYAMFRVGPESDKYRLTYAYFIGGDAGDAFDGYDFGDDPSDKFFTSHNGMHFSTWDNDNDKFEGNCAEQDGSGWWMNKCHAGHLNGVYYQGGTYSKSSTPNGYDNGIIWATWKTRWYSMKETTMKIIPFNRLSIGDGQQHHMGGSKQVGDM
Format: in vivo
Settings: ex vivo, 2 h post-injection
Description: All animal studies were approved by the Subcommittee on Research Animal Care at Massachusetts General Hospital. The occlusive thrombus model was described previously (Zhang R L, Chopp M, Zhang Z G, Jiang Q, and Ewing J R., Brain Res. 1997 766(1-2):83-92). Briefly, male Wistar rats (350-400 g, n=8; Charles River Laboratories, Wilmington, Mass.) were anaesthetized with isoflurane (1-2% in 70% N2O and 30% O2) and body temperature was kept at 37.5° C. A day old autologous blood clot was injected into the right internal carotid artery (ICA) at the level of the middle cerebral artery (MCA). The femoral vein was cannulated for intravenous delivery of the contrast agent. […]
The ipsilateral (containing the thrombus) and contralateral ICA and MCA, cerebral hemispheres, blood, urine, intraabdominal organs, rectus femoris muscle and femur bone were collected from all the animals, weighed and radioactivity measured on a gamma counter. The percent of the injected dose per gram of tissue (% ID/g) was calculated by dividing the counts of ^64Cu/g of tissue by the total counts of the injected dose, based on an aliquot of the injected dose, with correction for radioactive decay. Tissues were later homogenized in nitric acid and analyzed for Gd concentration by inductively coupled plasma-mass spectrometry (ICP-MS).

- Concentration of 64Cu in thrombus relative to contralateral vessel, blood plasma, brain, or muscle (p<0.005): at least 4 fold
- Gd concentration in thrombus relative to contralateral vessel, blood plasma, brain, or muscle (ICP-MS, p<0.0001): over 6 fold
Substance: Gd3-EP-2104R-Cu [Compound 21]
